US7253169B2, “Aza compounds, pharmaceutical compositions and methods of use” (Gliamed, Inc., priority 1999, dated 2007)

What was measured:
[1] = test system: TH-stained dopaminergic neurons; experiment: MPTP Model of Parkinson's Disease; format: in vivo; conditions: MPTP-lesioned CD1 mice; for % recovery of TH-stained dopaminergic neurons at 10 mg/kg: Mus musculus, Neuron, po, read-out: % TH recov 10 mg/kg p.o.
[2] = target: FKBP (Homo sapiens, UniProt P62942); experiment: Ki Test: inhibition of peptidyl-prolyl isomerase (rotamase) activity, chymotrypsin-coupled assay; format: biochemical; conditions: apparent Ki
FKBP, sequence (P62942 whole entry): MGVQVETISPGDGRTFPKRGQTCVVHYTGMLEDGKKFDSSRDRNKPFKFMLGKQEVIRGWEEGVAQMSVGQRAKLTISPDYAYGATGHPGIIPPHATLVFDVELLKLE
Description: Inhibition of the peptidyl-prolyl isomerase (rotamase) activity of the inventive compounds can be evaluated by known methods described in the literature (Harding et al., Nature, 1989, 341:758-760; Holt et al. J. Am. Chem. Soc., 115:9923-9938). These values are obtained as apparent Ki's and are presented for representative compounds in Table V. The cis-trans isomerization of an alanine-proline bond in a model substrate, N-succinyl-Ala-Ala-Pro-Phe-p-nitroanilide, is monitored spectrophotometrically in a chymotrypsin-coupled assay, which releases para-nitroanilide from the trans form of the substrate. The inhibition of this reaction caused by the addition of different concentrations of inhibitor is determined, and the data is analyzed as a change in first-order rate constant as a function of inhibitor concentration to yield the apparent Ki values.
In a plastic cuvette are added […] of ice cold assay buffer (25 mM HEPES, pH 7.8, 100 mM NaCl), […] of FKBP (2.5 mM in 10 mM Tris-Cl pH 7.5, 100 mM NaCl, 1 mM dithiothreitol), […] of chymotrypsin (50 mg/ml in 1 mM HCl) and […] of test compound at various concentrations in dimethyl sulfoxide. […]
The absorbance at 390 nm versus time is monitored for 90 seconds using a spectrophotometer and the rate constants are determined from the absorbance versus time data files.

SMILES	% recovery of TH-stained dopaminergic neurons at 10 mg/kg ([1]; 10 mg/kg p.o.)	further results
CCC(C)(C)C(=O)C(=O)N1CCCCN1C(=O)CCCCCc1ccccc1 [Compound 12, 3,3-dimethyl-1-[2-(6-phenylhexanoyl)-perhydropyridazinyl]-pentane-1,2-dione]	35%	
O=C(NC1CCCCC1)N1CCCCN1C(=O)OCCCCc1ccccc1 [Compound 154, 4-phenylbutyl 2-(N-cyclohexylcarbamoyl)-perhydropyridazine-carboxylate]	46%	
CCC(C)(C)C(=O)C(=O)N1CCCCN1C(=O)CCCCCc1cccnc1 [Compound 13, 3,3-dimethyl-2-[2-(6-(3-pyridyl)hexanoyl)-perhydropyridazinyl]-pentane-1,2-dione]	18%	Ki [2]: 3210 nM
CCC(C)(C)C(=O)C(=O)N1CCCN1C(=O)CCCc1ccccc1 [Compound 5, 3,3-dimethyl-1-[2-(4-phenylbutanoyl)-pyrazolidinyl]pentane-1,2-dione]	4%	
CCC(C)(C)C(=O)C(=O)N1CCCN1C(=O)CCCCc1cccnc1 [Compound 7, 3,3-dimethyl-1-[2-(5-(3-pyridyl)pentanoyl)-pyrazolidinyl]pentane-1,2-dione]	57%	
CCC(C)(C)C(=O)C(=O)N1CCCCN1C(=O)OCCCCCc1ccccc1 [Compound 16, 5-phenylpentyl 2-(3,3-dimethyl-2-oxopentanoyl)perhydro-pyridazinecarboxylate]	49%	
O=C(OCCCCc1ccccc1)N1CCCCN1S(=O)(=O)Cc1ccccc1 [Compound 106, 4-phenylbutyl 2-[benzylsunfonyl]-perhydropyridazine-carboxylate]	23%	
CCC(C)(C)C(=O)C(=O)N1CCCN1C(=O)CCc1ccccc1 [Compound 2, 3,3-dimethyl-N-[2-(3-phenylpropanoyl)tetra-hydro-1H-1-pyrazolyl]-1,2-pentanedione]	10%	
CCC(C)(C)C(=O)C(=O)N1CCCCN1C(=O)OCCCc1ccccc1 [Compound 14, 3-phenylpropyl 2-(3,3-dimethyl-2-oxopentanoyl)-perhydropyridazine-carboxylate]		% TH recov 10 mg/kg p.o. ([1]; 10 mg/kg p.o.): 3%
CCC(C)(C)C(=O)C(=O)N1CCCCN1C(=O)CCCCc1ccccc1 [Compound 18, 3,3-dimethyl-1-[2-({5-phenyl)pentanoyl)-perhydropyridazinyl]-pentane-1,2-dione]	18%	
CCC(C)(C)C(=O)C(=O)N1CCCN1C(=O)CCCCCc1ccccc1 [Compound 6, 3,3-dimethyl-1-[2-(6-phenylhexanoyl)-pyrazolidinyl]pentane-1,2-dione]	32%	
CCC(C)(C)C(=O)C(=O)N1CCCCN1C(=O)OCCCCc1cccnc1 [Compound 17, 4-(3-pyridyl)butyl 2-(3,3-dimethyl-2-oxopentanoyl)-perhydropyridazine-carboxylate]	38%	
CCC(C)(C)C(=O)C(=O)N1CCCN1C(=O)CCCCc1ccccc1 [Compound 1, 3,3-dimethyl-N-[2-(5-phenylpentanoyl) -tetrahydro-1H-1-pyrazolyl]-1,2-pentanedione]		% TH recov 4 mg/kg s.c. ([1]; 4 mg/kg s.c.): 14%; Ki [2]: 1170 nM
CCC(C)(C)C(=O)C(=O)N1CCCN1C(=O)CCC#Cc1cccnc1 [Compound 3, 3,3-dimethyl-1-[2-(5-(3-pyridyl)pent-4-ynoyl)-pyrazolidinyl]-pentane-1,2-dione]	26%	
CCC(C)(C)C(=O)C(=O)N1CCCCN1C(=O)OCCCCc1ccccc1 [Compound 15, 4-phenylbutyl 2-(3,3-dimethyl-2-oxopentanoyl)perhydro-pyridazinecarboxylate]	21%	
